Patent US6716810B1, “Composition and method for regulation of body weight and associated conditions” (Eleanor Roosevelt Institute, priority 1998, dated 2004)
“Also recorded” adds a separate entry of the source.

Experiments:
Type in all cases: in vivo, mouse
obese lep^ob/ob mice = assay: Weight change in obese lep ob/ob mice treated with leptin, α-MSH analog or both (Example 4); settings: 3 μg of each compound i.p. once daily; mice aged 2 months
Procedure: To assess a more general effect of peripheral melanocortin on adipocytes, another genetic form of obesity, in lep^ob/ob mice, was treated with the α-MSH analog. In this experiment, the mice received leptin or the α-MSH analog alone, and in combination.
Briefly, obese lep^ob/ob mice at age 2 months (2 per group) received daily either: (1) 3 μg of α-MSH analog (described in Examples 2 and 3 above); (2) 3 μg of recombinant mouse leptin; (3) 3 μg of α-MSH analog and 3 μg of recombinant mouse leptin in combination; or (4) saline. The compounds were delivered intraperitoneally once daily, 1-2 hours before the onset of darkness.

wildtype mice = assay: Weight change and food intake under standard diet, MSH analog or high fat diet, wildtype mice (Example 3); settings: 1 or 2 μg i.p. once daily
Procedure: (§1) P values were determined by ANOVA. If the major component of weight regulation through the melanocortinergic pathway was the regulation of feeding behavior, the observed changes in body weight in is POMC null mutant mice should be paralleled by a similar pattern in food uptake. This, however, was not observed (FIGS. 5B and 5D and Table 1).

[1] = tested on: POMC homozygous mutant female mice; assay: Daily intraperitoneal MSH analog in POMC homozygous mutant mice: body weight, food intake, coat pigmentation (Example 2); settings: for weight loss, % of excess weight by 2 weeks: p<0.05 at day 16
Procedure: (§2) To test initially for the effect of peripheral melanocortins on weight change, we selected the stable agonist [Ac-Cys^4, D-Phe^7, Cys^10]α-MSH (4-13) (described in Cody et al., 1985, J. Med. Chem. 28, 583-588; incorporated herein by reference in its entirety). Briefly, [Ac-Cys^4, D-Phe^7, Cys^10]α-MSH (4-13) amide, having the cysteines connected by a disulfide bridge, was obtained from Peninsula Laboratories, CA. Lyophilized powder was dissolved in water at 1 mg/ml, which was diluted in PBS to 10 μg/mL. During the experiments, mice were maintained on a normal 12 h/12 h light/dark cycle with food and water ad libitum. Mice were fed standard laboratory rodent diet (#5001).
(§3) In order to see whether the α-MSH analog has an effect on food intake, we compared weight change and food intake in these mice for one week (see bars in FIGS. 4A and 4B) under MSH analog treatment and after MSH analog treatment was stopped (FIGS. 4C and 4D). During one week under MSH analog treatment mutant mice lost 0.5 g, while wildtype littermates gained 0.3 g; the food intake during this time was equivalent in both groups (20.7 g in wildtypes, and 22.7 g in mutants).
An effect of MSH could also be seen on coat pigmentation. […] Yellow coat pigmentation gradually reappeared after MSH treatment was terminated (data not shown).

ob/ob mutant mice [2] = assay: Weight gain and food intake in ob/ob mutants treated with leptin, MSH analog or both (Example 5)
Procedure: Leptin deficient (ob/ob) mutants show both hyperphagia and “increased metabolic efficiency” as witnessed by their ability to gain weight even when pair-fed with normal congenic controls. To determine the effects of leptin and MSH on food intake and weight gain, four sets of ob/ob mutants were treated with leptin, an MSH analog, both together, or vehicle alone. The MSH analog [Ac-Cys^4, D-Phe^7, Cys^10]α-MSH (4-13) was purchased from Peninsula Laboratories (Belmont, Calif.). Mice were treated with daily injections of 7 micrograms of each, both or neither.

wildtype female mice = assay: Daily intraperitoneal MSH analog in wildtype littermates: body weight, food intake (Example 2); settings: for weight loss in wildtype littermates: 1 microgram i.p. daily, 16-day treatment
Procedure: as §2, §3

POMC null mutant mice = assay: Weight change and food intake under standard diet, MSH analog or high fat diet, POMC null mutant mice (Example 3); settings: 1 or 2 μg i.p. once daily
Procedure: as §1

ob/ob mutant mice [3] = assay: Core temperature of ob/ob mutants exposed to 4° C. after MSH analog (Example 5); settings: 7 micrograms; 5 hours without food, then 4° C. for 65 minutes; v. vehicle
Procedure: In 1977, the decreased ability of ob/ob mutants to maintain body temperature at 4° C. was noted. This preceded the onset of obesity in these mice. In view of the evidence that MSH regulates adipocyte metabolism, the present inventors hypothesized that the low levels of circulating MSH in leptin deficient (ob/ob) mutants was responsible for the impaired thermal regulation. To test this, ob/ob mutants were injected with 7 micrograms of MSH analog or vehicle only as described above. The mice were left without food for 5 hours and then exposed to 4° C. for 65 minutes. Their core temperatures were measured periodically by transfer to a coldroom (4° C.) where core temperatures were measured using a digital thermometer fitted with a rectal probe (Atkins Technical Inc., Gainesville, Fla.). […] As the mice had no opportunity to eat between injection of the MSH analog and the cold challenge, food intake cannot be responsible for the altered thermal regulation.

[4] = tested on: ob/ob mutant mice (C57BL/6J-Lep^ob); assay: Circulating MSH levels by RIA in ob/ob mutants after leptin (Example 5); settings: leptin 7 microgram/day i.p.; two hours after the tenth daily injection
Procedure: To test the inductive ability of leptin on circulating MSH levels, ob/ob mutants (ob/ob mutant mice (C57BL/6J-Lep^ob) and congenic controls were purchased from the Jackson Laboratory, Bar Harbor, Me.) were treated with leptin (7 microgram/day) or with vehicle alone (Murine recombinant leptin was kindly provided by Dr. A. F Parlow through the National Hormone and Pituitary Program (NHPP); hormones were diluted to 70 micrograms per milliliter in PBS; mice were injected intraperitoneally with 0.1 mL). Two hours after the tenth daily injection, blood samples were drawn from the retro-orbital sinus and analyzed for MSH levels by RIA following the manufacturer's instructions (Peninsula Laboratories, Belmont, Calif.).

[5] = daily injections of 7 micrograms

[Ac-Cys^4, D-Phe^7, Cys^10]α-MSH (4-13) amide [MSH analog]
total weight change over a period of 10 days compared to untreated controls (obese lep^ob/ob mice): slowed weight gain by almost half | food intake under MSH analog (wildtype mice): decreases food intake | weight regulation under MSH analog (wildtype mice): maintaining their body weight constant | weight loss, % of excess weight by 2 weeks ([1]; 1 microgram (~1 nmol) i.p. daily, mutant female mice, listed as MSH-agonist): 46 % of excess weight | weight loss, % of excess weight by 2 weeks ([1]; 1 microgram (~1 nmol) i.p. daily, mutant female mice, listed as α-MSH agonist): over 40 % of excess weight | weight loss, % of excess weight within one week ([1]; 1 microgram (~1 nmol) i.p. daily, mutant female mice, p<0.1 at day 8): 38 % of excess weight | time until mutant mice started to gain weight after MSH injections were stopped ([1]; after 16-day treatment): about 10 days | weight regain after MSH injections were stopped ([1]; another two weeks after onset of regain): reached close to their pretreatment weight | weight lost during one week under MSH analog treatment ([1]; second week of treatment, mutant mice): 0.5 g | food intake during one week under MSH analog treatment ([1]; second week of treatment, mutants): 22.7 g | weight gained in one week after MSH analog treatment had been stopped for two weeks ([1]; third week after termination, mutant mice): 1.7 g | food intake in one week after MSH analog treatment had been stopped for two weeks ([1]; third week after termination, mutants): 35.7 g | excess food intake of mutants over wildtypes after treatment stop ([1]; third week after termination, p<0.005): 11.5 g | coat pigmentation ([1]; treated for two weeks): lost their yellowish tinge | effect of MSH analog added to leptin on weight (ob/ob mutant mice [2]; 7 micrograms of each, daily): inability of peripheral MSH analog to supplement the weight reducing effect | effect on weight gain compared with effect on food intake (ob/ob mutant mice [2]; [5]): greater on weight gain than on food intake | weight gain (ob/ob mutant mice [2]; [5]): effectively decreased weight gain; also recorded: decreases weight gain | weight loss in wildtype littermates (wildtype female mice; listed as MSH-agonist): no significant weight loss | weight loss in wildtype littermates (wildtype female mice; listed as α-MSH agonist): did not lose significant weight | weight gained during one week under MSH analog treatment (wildtype female mice; second week of treatment, wildtype littermates): 0.3 g | food intake during one week under MSH analog treatment (wildtype female mice; second week of treatment, wildtypes): 20.7 g | weight gain in one week after MSH analog treatment had been stopped for two weeks (wildtype female mice; third week after termination, wildtype littermates): 0.3 g | food intake in one week after MSH analog treatment had been stopped for two weeks (wildtype female mice; third week after termination, wildtypes): 24.2 g | food intake under MSH analog (POMC null mutant mice): decreases food intake | weight change under MSH analog (POMC null mutant mice): lose excess weight | core temperature / thermal homeostasis at 4° C. (ob/ob mutant mice [3]): maintained their core temperature much better; also recorded: increases thermal homeostasis

B1: leptin: recombinant mouse leptin, product of the ob gene, provided through the National Hormone and Pituitary Program (protein, UniProt P41160 22-167, looked up)
Leptin: VPIQKVQDDTKTLIKTIVTRINDISHTQSVSAKQRVTGLDFIPGLHPILSLSKMDQTLAVYQQVLTSLPSQNVLQIANDLENLRDLLHLLAFSKSCSLPQTSGLQKPESLDGVLEASLYSTEVVALSRLQGSLQDILQQLDVSPEC
total weight change over a period of 10 days compared to untreated controls (obese lep^ob/ob mice): little effect on preventing further weight gain | weight gain (ob/ob mutant mice [2]; [5]): effectively decreased weight gain | circulating MSH levels [4]: approached those found in normal control mice; also recorded: induces almost normal levels of circulating MSH
